Values quoted from earlier work, collected in patent US20200078426A1, “TREATMENT OF CANCER BY INFUSION OF ONCOLYTIC HERPES SIMPLEX VIRUS TO THE BLOOD” (VIRTTU BIOLOGICS LIMITED, priority 2015, published 2020).

Tested on: squamous cell head and neck cancer
Details: concurrent chemo-radiation arm, unresectable locally advanced disease; radiation alone 23%

## N.N.[Cl][Pt][Cl] [cisplatin]
  three year overall survival: 37%
